In article PMC5108082, “Pharmacokinetics, toxicity, and cytochrome P450 modulatory activity of plumbagin” (BMC Pharmacology & Toxicology, 2016):

Experiments:
[1] = acute toxicity test, single oral dose; type: in vivo, rat; conditions: both sexes, Wistar, rat, in vivo, rats, single oral dose
Procedure: (§1) Plumbagin was dissolved with 20 % Tween-80 to obtain the desired concentrations. Wistar rats were fasting 2 h before administration of a single oral dose of the plumbagin. Animals were divided into eight groups of six (3 males and 3 females for each group). For the acute toxicity test, rats in each group were fed with plumbagin at a single oral dose of 500, 250, or 150 mg/kg body weight (1 mL); control group received a single oral dose of 20 % Tween-80 (1 mL). For the subacute toxicity test, rats in each group were fed with plumbagin at a daily dose of 100, 50, or 25 mg/kg body weight (1 mL) for 28 days; control group received a daily oral dose of 20 % Tween-80 for 28 days (1 mL).
(§2) General behavioral changes of each rat was observed continuously for 1 h after each dose, intermittently every 4 h, and thereafter over a period of 24 h. […] At the end of the observation period, all animals were sacrificed under ether anesthesia (isoflurane) and vital organs (liver, lung, kidney, heart, and spleen) were removed from all animals for gross and histopathological examination. Blood sample was collected from each rat through cardiac puncture for analysis of plasma chemistry (heparin as an anticoagulant) and blood hematology (EDTA as an anticoagulant).

Wistar rats = assay: acute toxicity test, single oral dose; type: in vivo, rat
Procedure: as §1, §2

in vivo = conditions: male, Wistar, rat, po, 100 mg/kg
Procedure: Pharmacokinetic investigation was performed in 4 male Wistar rats (weighing 200–350 g) following a single oral dose of 100 mg/kg body weight plumbagin (1 mL). The control group received 20 % Tween-80 (1 mL). Blood samples (500 μL each) were collected from the tail vein of each rat at 0, 1, 2, 3, 5, 8, 24, 48, and 72 h after dosing. Plasma was separated from whole blood samples through centrifugation at 3000 × g for 10 min.
Concentrations of plumbagin in plasma and urine samples collected from all animals were measured using liquid chromatographic-mass spectrometry (LC-MS/MS) according to the previously described method with modifications. The limits of quantification (LOQ) and detection (LOD) for plumbagin were 5 and 2 ng/mL plasma, respectively. Recovery of the compound in plasma after sample preparation procedure was between 82 and 92 %. The assay intra- and inter-day coefficients of variation (% CV) were 0.7–4.7 % and 3.9–8.3 %, respectively. In brief, plasma sample (100 μL) was mixed with 10 ng/mL honokiol (5 μL) and ethyl acetate (1 mL) and centrifuged at 12,000 × g for 15 min. The upper layer was transferred to a new tube and evaporated to dryness under nitrogen flow. The dried residue was reconstituted with 100 μL of the mobile phase and a 5 μL aliquot was injected onto the LC–MS/MS. The samples were collected from the metabolic cages at 24, 48, 72, 96, and 120 h. All were centrifuged at 1500 × g for 10 min and the supernatant (100 μL) was extracted with ethyl acetate (1 mL). The extract was dried and the residue was reconstituted with 100 μL of the mobile phase and a 5 μL aliquot was injected onto the LC–MS/MS.
The LC-MS/MS system used consists of Agilent 1100 Separation Module (Agilent Technologies, CA, USA) solvent and sample delivery, Av QTRAP 5500 Triple Quadrupole Mass Spectrometer (AB Sciex, Foster City, CA, USA) equipped with CID, and Multiple Reactions Monitoring (MRM). Mass spectrometric analysis was performed in the negative-ion mode (ESI). The following parameters of the turbo ion spray were used: ion spray voltage = −4500 V; the ion source gas 1 (GS1), gas 2 (GS2), curtain gas (CUR) and collision gas (CAD) were 50, 60, 25 and 5, respectively; and the desolvation gas (nitrogen) heated to 500 °C. Separation was performed using Hypersil gold reversed-phase C18 column (50 mm × 4.6 mm i.d., 5 μM: Thermo Scientific, Fremont, CA, USA) with the mobile phase consisting of a mixture of (A) water containing 0.1 % formic acid and (B) 100 % methanol, running with gradient mode at the flow rate of 0.6 mL/min at 25 °C (Table 1). On the basic of the full-scan mass spectra of each analyze, the most abundant ions were selected and the mass spectrometer was set to monitor the transitions of the precursors to the product ions as follows: m/z 187– >159 for plumbagin, and 265– >224 for honokiol (internal standard). The system was controlled by Analyst^TM software (AB Sciex, Foster City, CA, USA).
Pharmacokinetic parameters were determined using a non-compartmental analysis using WinNonLin^TM software (version 6.3, Pharsights, Certara, USA). Concentrations of drugs lower than the limit of quantification (LOQ) were expressed as zero (undetectable). The Cmax (maximum concentration); tmax (time of maximum concentration) were determined by direct inspection of the plasma concentration–time data. […] The extrapolated AUC from the last sampling time to infinity was estimated from Ct/elimination rate constant (λz). λz was calculated from at least five concentration–time points of elimination phase. Apparent oral clearance (CL/F) was calculated as dose/AUC0−∞. Volume of distribution (Vz/F) was calculated as CL/F/z, and the terminal half-life (t1/2z) was calculated as 0.693/λz. Mean residence time (MRT) was calculated from the ratio of AUMC0-α)/AUC0−∞.

[2] = single oral dose 150 mg/kg body weight, 14 days observation

CC1=CC(=O)c2c(O)cccc2C1=O [plumbagin, 5-hydroxy-2-methyl-1,4-naphthoquinone]
LD50 at 14 days ([1]; read-out: 50 % lethal dose (LD50), acute toxicity): 250 mg/kg | MTD at 14 days ([1]; read-out: maximum tolerated dose, acute toxicity): 150 mg/kg | gender-specific toxicity (Wistar rats; all dose levels): No gender-specific toxicity was observed | histopathological examination (liver, kidney, heart, spleen, lung) (Wistar rats; all dose levels (150, 250, 500 mg/kg)): no significant change in size and morphology | signs of toxicity, water and food consumption, body weight (Wistar rats; [2]): no visible sign of toxicity | survival (Wistar rats; [2]): All rats survived | animals died (Wistar rats; single oral dose 250 mg/kg body weight): 3/6 | animals died (Wistar rats; single oral dose 500 mg/kg body weight): 6/6 | signs of toxicity (Wistar rats; single oral dose 250 and 500 mg/kg body weight): toxic signs and symptoms including anxiety, salivation, exhibited chewing, and agitation | AUC(0-inf) (in vivo): 6710 ng·h/mL | AUC(0-t) (in vivo): 6510 ng·h/mL | CL/F (in vivo): 250 mL/min/kg | Cmax (in vivo): 460 ng/mL | Tmax (in vivo): 5 h | Vd/F (in vivo): 220 L/kg | t1/2 (elimination half-life) (in vivo): 9.63 (3.04) h | time up to which detected in systemic circulation (in vivo): 48 h | time up to which detected in urine (complete elimination in urine) (in vivo): 96 h | plumbagin excreted in urine (in vivo; 72 h): 15 (9) μg | half-life (in vivo; t1/2 (elimination half-life)): ~576 min
